Experimental data reported in the supplement of paper PMC10307832.

Legend:
AZ628 + Vorinostat = compound: CC1=C(C=C(C=C1)NC(=O)C2=CC(=CC=C2)C(C)(C)C#N)NC3=CC4=C(C=C3)N=CN(C4=O)C [AZ628] + O=C(CCCCCCC(=O)Nc1ccccc1)NO [Vorinostat] (partner 1 µM); assay: relative viability (nuclei count vs DMSO), 5 days (fraction); higher = more cells survive
Method in brief: (§1)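 One day after seeding in 1536-well plates, lung cancer cell lines were dosed by pin tool. Dosing was either single-drug or a fixed anchor-drug dose plus five library-drug doses (not always all listed) in √10 steps. After 5 days, nuclei were stained in one fix-and-stain step and counted on 4× images, and relative viability is the nuclei count of treated wells over that of vehicle wells, given as the median of duplicate plates.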

QS11 + Vorinostat = compound: C1CC2=C(C1)C=C(C=C2)OC3=NC(=C4C(=N3)N(C=N4)CC5=CC=C(C=C5)C6=CC=CC=C6)N[C@@H](CC7=CC=CC=C7)CO [QS11] + O=C(CCCCCCC(=O)Nc1ccccc1)NO [Vorinostat] (partner 1 µM); assay: as above
Method in brief: as §1

Row | Cell Line | relative viability (AZ628 + Vorinostat; first compound 0.08 µM) | relative viability (AZ628 + Vorinostat; first compound 0.253 µM) | relative viability (AZ628 + Vorinostat; first compound 0.8 µM) | relative viability (AZ628 + Vorinostat; first compound 2.53 µM) | relative viability (AZ628 + Vorinostat; first compound 8 µM) | relative viability (QS11 + Vorinostat; first compound 0.08 µM) | relative viability (QS11 + Vorinostat; first compound 0.253 µM) | relative viability (QS11 + Vorinostat; first compound 0.8 µM) | relative viability (QS11 + Vorinostat; first compound 2.53 µM) | relative viability (QS11 + Vorinostat; first compound 8 µM)
1 | NCI-H2405 | 0.884 | 0.8 | 0.69 | 0.707 | 0.586 | 1.12 | 0.957 | 0.766 | 1.06 | 0.974
2 | NCI-H1944 | 0.613 | 0.547 | 0.508 | 0.468 | 0.444 | 0.485 | 0.491 | – | 0.424 | 0.505
3 | NCI-H520 | 0.684 | 0.628 | 0.702 | 0.81 | 0.716 | 0.758 | 0.758 | 0.639 | 0.804 | 0.88
4 | NCI-H2228 | 0.697 | 0.684 | 0.644 | 0.507 | 0.432 | 0.62 | 0.535 | 0.61 | 1.17 | 0.741
5 | EKVX | 0.952 | 0.698 | 0.848 | 0.579 | 0.53 | 0.642 | 0.625 | 0.592 | 0.567 | 0.545
